Target: Dr hemagglutinin (Escherichia coli, UniProt P24093)
Type: cell-based, E. coli

Chain of Dr hemagglutinin (P24093 22-160): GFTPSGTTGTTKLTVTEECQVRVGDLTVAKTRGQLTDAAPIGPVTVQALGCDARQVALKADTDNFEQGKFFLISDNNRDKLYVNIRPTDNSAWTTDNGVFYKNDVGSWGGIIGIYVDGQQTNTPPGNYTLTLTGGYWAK

## TTGTTKL
  polymerisation of Dr hemagglutinin judged by hemaglutination assay: completely abolished

Source: patent US7544773B2 (priority 2003, dated 2009)
